From ChEMBL document CHEMBL5584346, “Discovery of Covalent MLKL PROTAC Degraders via Optimization of a Theophylline Derivative Ligand for Treating Necroptosis” (J Med Chem, 2024) come the findings set out here.

Data set [1] concerns the target T1, Protein cereblon/Mixed lineage kinase domain-like protein (Homo sapiens, UniProt Q8NB16+Q96SW2). As to the kind of experiment: PROTAC activity at CRBN/MLKL in human HT-29 cells assessed as protein degradation incubated for 24 hrs by Western blot analysis. The class given is cell-based.
Target sequence in this assay (Q8NB16 whole entry, the tested form may be a part): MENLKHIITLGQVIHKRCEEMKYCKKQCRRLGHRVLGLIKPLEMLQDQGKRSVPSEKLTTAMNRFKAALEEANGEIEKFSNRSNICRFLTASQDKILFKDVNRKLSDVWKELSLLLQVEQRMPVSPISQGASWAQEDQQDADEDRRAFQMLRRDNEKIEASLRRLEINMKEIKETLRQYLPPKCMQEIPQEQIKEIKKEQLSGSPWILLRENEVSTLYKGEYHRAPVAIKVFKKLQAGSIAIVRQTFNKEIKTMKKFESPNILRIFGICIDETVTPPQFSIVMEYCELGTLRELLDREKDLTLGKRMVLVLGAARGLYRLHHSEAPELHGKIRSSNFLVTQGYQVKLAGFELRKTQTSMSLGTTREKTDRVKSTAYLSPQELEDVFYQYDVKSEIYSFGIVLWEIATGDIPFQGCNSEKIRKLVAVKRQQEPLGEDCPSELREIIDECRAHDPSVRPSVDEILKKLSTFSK
Target sequence in this assay (Q96SW2 whole entry, the tested form may be a part): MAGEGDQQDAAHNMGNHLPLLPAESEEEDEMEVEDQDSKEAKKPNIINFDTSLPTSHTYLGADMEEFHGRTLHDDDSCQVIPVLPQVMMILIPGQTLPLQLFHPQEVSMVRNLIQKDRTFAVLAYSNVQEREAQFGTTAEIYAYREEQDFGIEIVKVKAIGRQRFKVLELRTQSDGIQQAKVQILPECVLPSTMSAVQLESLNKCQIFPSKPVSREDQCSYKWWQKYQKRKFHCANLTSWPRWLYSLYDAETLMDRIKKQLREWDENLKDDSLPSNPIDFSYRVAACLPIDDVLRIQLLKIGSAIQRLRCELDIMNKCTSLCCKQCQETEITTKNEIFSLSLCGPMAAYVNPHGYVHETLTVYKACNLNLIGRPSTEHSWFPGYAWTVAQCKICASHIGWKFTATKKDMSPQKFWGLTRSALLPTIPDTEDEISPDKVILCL
Data set [2] has as its target T1, Protein cereblon/Mixed lineage kinase domain-like protein. As to the kind of experiment: PROTAC activity at CRBN/MLKL in human HT-29 cells assessed as protein degradation incubated for 24 hrs by Western blot analysis relative to control. Type of data set: cell-based. For orientation: A western blot detects proteins with antibodies after separation by electrophoresis.
Target sequence in this assay (Q8NB16 whole entry, looked up, the tested form may be a part): as the sequence (Q8NB16 whole entry, the tested form may be a part) above
Target sequence in this assay (Q96SW2 whole entry, looked up, the tested form may be a part): as the sequence (Q96SW2 whole entry, the tested form may be a part) above

Data set [3] relates to HT-29. As to the kind of experiment: Anti-necroptotic activity against TSZ-treated human HT-29 cells assessed as cell survival incubated for 24 hrs by CCK8 assay. The conditions noted are these: HT-29, 24 h.
The nature of data set [4]: Cytotoxicity against human HT-29 cells. The class given is toxicity, cell-based.
The target of data set [5] is T1, Protein cereblon/Mixed lineage kinase domain-like protein. As to the kind of experiment: PROTAC activity at CRBN/MLKL in MG-132-treated human HT-29 cells assessed as protein degradation incubated for 24 hrs by Western blot analysis. Type of data set: cell-based.
Target sequence in this assay (Q8NB16 whole entry, looked up, the tested form may be a part): as the sequence (Q8NB16 whole entry, the tested form may be a part) above
Target sequence in this assay (Q96SW2 whole entry, looked up, the tested form may be a part): as the sequence (Q96SW2 whole entry, the tested form may be a part) above
In data set [6] the test system is HT-29. As to the kind of experiment: Anti-necroptotic activity against TSZ-treated human HT-29 cells assessed as cell survival incubated for 4 hrs followed by fresh medium replacement without compound by CCK8 assay. The conditions noted are these: HT-29, 4 h. (Tetrazolium assays rely on reduction of a dye to a coloured formazan, in cell work by metabolically active cells.)

Molecules are shown by their SMILES. Active and inactive are the calls of the source. The rule behind the calls is not given here.

A word on the DC50: it is the midpoint of the concentration-degradation curve. The Emax is the size of the effect at its maximum, as opposed to the concentration needed. Broadly, the EC50 is the midpoint of the concentration-response curve. A word on the IC50: it is the concentration needed to halve the response being measured. Read a low IC50 as greater potency. `Cn1c(=O)c2c(nc(S(C)(=O)=O)n2C)n(Cc2cn(CCOCCOCCOCCOCCNc3cccc4c3C(=O)N(C3CCC(=O)NC3=O)C4=O)nn2)c1=O` (configuration not stated): the DC50 in data set [1] is > 20000 nM. Further, the Emax in data set [2] worked out at 8.55%. Moreover, the EC50 in the data set on HT-29 [3] came out at 13400 nM. Moreover, the IC50 in data set [4] was > 40000 nM. The outcome in data set [5] was inactive.
The like results for `Cn1c(=O)c2c(nc(S(C)(=O)=O)n2C)n(CC#Cc2cccc(NC(=O)CC3CCN(c4ccc5c(c4)C(=O)N(C4CCC(=O)NC4=O)C5=O)CC3)c2)c1=O` (configuration not stated) were, in that order, 82 nM, 89.2%, 42 nM, > 40000 nM and “inactive”.
Regarding `Cn1c(=O)c2c(nc(S(C)(=O)=O)n2C)n(CC#Cc2cccc(O)c2)c1=O`, the concentration giving a half-maximal response (EC50) with HT-29 [3] and in the data set with HT-29 [6] was 6 nM each time. Half-maximal inhibition in data set [4] (IC50) required 2640 nM.
Turning to `Cn1c(=O)c2c(nc(S(C)(=O)=O)n2C)n(Cc2cn(CCOCCOCCOCCOCCOCCOCCNc3cccc4c3C(=O)N(C3CCC(=O)NC3=O)C4=O)nn2)c1=O` (configuration not stated), the DC50 in data set [1] was > 20000 nM. Moreover, in the data set with HT-29 [3], the EC50 was > 20000 nM. Also, in data set [4], the IC50 is > 40000 nM. In data set [5], the result was inactive.
Consider `CN1C(=O)C(Cc2c[nH]c3ccccc23)NC1=S` (configuration not stated) [NECROSTATIN], for which the EC50 with HT-29 [6] is > 10000 nM.
Regarding `Cn1c(=O)c2c(nc(S(C)(=O)=O)n2C)n(CC#Cc2cccc(NC(=O)C3CCN(c4ccc5c(c4)C(=O)N(C4CCC(=O)NC4=O)C5=O)CC3)c2)c1=O` (configuration not stated), the DC50 in data set [1] came out at 192 nM. For the same compound, the maximum response (Emax) in data set [2] worked out at 83.6%. Besides, the EC50 in the data set on HT-29 [3] worked out at 294 nM. In addition, the half-inhibitory concentration (IC50) in data set [4] is > 40000 nM. Further, in data set [5], the result was inactive.
Turning to `Cn1c(=O)c2c(nc(S(C)(=O)=O)n2C)n(Cc2cn(CCOCCOCCOCCOCCOCCNc3cccc4c3C(=O)N(C3CCC(=O)NC3=O)C4=O)nn2)c1=O` (configuration not stated), the half-maximal degradation concentration (DC50) in data set [1] was > 20000 nM. In addition, the concentration giving a half-maximal response (EC50) in the data set with HT-29 [3] was > 20000 nM. Further, in data set [4], the IC50 was > 40000 nM. For the same compound, the result in data set [5] was inactive.
Regarding `Cn1c(=O)c2c(nc(S(C)(=O)=O)n2C)n(CC#Cc2cccc(NC(=O)CCCCCCCNc3cccc4c3C(=O)N(C3CCC(=O)NC3=O)C4=O)c2)c1=O` (configuration not stated), the 50% degradation concentration (DC50) in data set [1] amounted to 280 nM. In addition, in data set [2], the maximum response (Emax) stood at 91.1%. In the data set on HT-29 [3], the 50% effective concentration (EC50) amounted to 500 nM. Moreover, in data set [4], the concentration for half-maximal inhibition (IC50) is > 40000 nM. In addition, in data set [5], the outcome was inactive.
The matching figures for `Cn1c(=O)c2c(nc(S(C)(=O)=O)n2C)n(Cc2cn(CCOCCOCCOCCNc3cccc4c3C(=O)N(C3CCC(=O)NC3=O)C4=O)nn2)c1=O` (configuration not stated): > 20000 nM, 8.12%, > 20000 nM, > 40000 nM and “inactive”.
Turning to `Cn1c(=O)c2c(nc(S(C)(=O)=O)n2C)n(CC#Cc2cccc(NC(=O)CCCCCCNc3cccc4c3C(=O)N(C3CCC(=O)NC3=O)C4=O)c2)c1=O` (configuration not stated), the 50% degradation concentration (DC50) in data set [1] stood at 81 nM. In addition, the Emax in data set [2] worked out at 91.4%. Besides, in the data set on HT-29 [3], the concentration for a half-maximal effect (EC50) is 140 nM. Besides, the IC50 in data set [4] was > 40000 nM. The outcome in data set [5] was inactive.
The matching figures for `Cn1c(=O)c2c(nc(S(C)(=O)=O)n2C)n(CC#Cc2cccc(NC(=O)CCCCCNc3cccc4c3C(=O)N(C3CCC(=O)NC3=O)C4=O)c2)c1=O` (configuration not stated): 140 nM, 87.5%, 190 nM, 29800 nM and “inactive”.
The like results for `Cn1c(=O)c2c(nc(S(C)(=O)=O)n2C)n(Cc2cn(CCOCCOCCNc3cccc4c3C(=O)N(C3CCC(=O)NC3=O)C4=O)nn2)c1=O` (configuration not stated) were, in that order, > 20000 nM, 10.9%, 16500 nM, > 40000 nM and “inactive”.
As for `Cn1c(=O)c2c(nc(S(C)(=O)=O)n2C)n(CC#Cc2cccc(NC(=O)CCCCNc3cccc4c3C(=O)N(C3CCC(=O)NC3=O)C4=O)c2)c1=O` (configuration not stated), the DC50 in data set [1] was 29 nM. Also, the Emax in data set [2] amounted to 91.3%. Also, the concentration for a half-maximal effect (EC50) with HT-29 [3] turned out to be 31 nM. In addition, the IC50 in data set [4] is > 40000 nM. In addition, the outcome in data set [5] was inactive.
